Source: patent publication US20220054575A1, “PROTECTION AGAINST CORONAVIRUS INFECTION BY EXTRACTS AND EXTRACT COMPONENTS” (Natreon, Inc., priority 2020, published 2022)

Assay: Solubility (description)
Format: physicochemical
Conditions: for solubility in organic solvent: DMSO / DMF

Compound	solubility in organic solvent	solubility in water
O=c1oc2cc(O)ccc2c2ccc(O)cc12 [3,8-dihydroxy-6H-benzo[c]chromen-6-one]	soluble in DMSO	largely insoluble in water
O=c1oc2cc(O)ccc2c2ccccc12 [3-hydroxy-6H-benzo[c]chromen-6-one]	soluble in DMSO and DMF	largely insoluble in water
